Data published in ChEMBL document CHEMBL1141389, “Bioactive diterpenes from Orthosiphon labiatus and Salvia africana-lutea” (J Nat Prod, 2007).
≈ marks a conversion by molar mass, not a printed value. Calls of active or inactive are those of the source. No cut-off for these calls is given here.

Legend:
MCF7 [1] = assay: Cytotoxicity against human MCF7 cells at 650 uM; format: cell-based; conditions: mcf7, 650 µM
[2] = system: Mycobacterium tuberculosis; assay: Antimycobacterial activity against Mycobacterium tuberculosis H37Rv ATCC 27294; format: functional
MCF7 [3] = assay: Cytotoxicity against human MCF7 cells; format: cell-based
[4] = system: Mycobacterium tuberculosis; assay: Antimycobacterial activity against Mycobacterium tuberculosis H37Rv ATCC 27294 at 650 uM; format: functional, organism-based

| Compound | Activity (MCF7 [1]) | MIC [2] [µM] | IC50 (MCF7 [3]) [µM] | Activity [4] |
| --- | --- | --- | --- | --- |
| C=C/C(C)=C/C[C@H]1C(=C)CC[C@@H]2[C@]1(C)C[C@@H](O)C[C@@]2(C)C(=O)O | Not Active | 157 (≈ 50 µg/mL) | – | – |
| COC(=O)[C@]12CCCC(C)(C)[C@@H]1CCc1cc(C(C)C)c(OC)c(O)c12 | – | 28 (≈ 10.1 µg/mL) | 69 | – |
| C=C/C(C)=C/C[C@H]1C(=C)CC[C@H]2[C@](C)(CO)C[C@H](O)C[C@]12C | – | – | 82 | inactive |
| CC(C)c1cc2c(c(O)c1O)[C@@]13CCCC(C)(C)[C@@H]1C[C@@H]2OC3=O [CARNOSOL] | Not Active | – | – | inactive |
